Data published in PMC2074348, “Preclinical in vivo efficacy of two 9-dihydrotaxane analogues against human and murine tumours” (British Journal of Cancer, 1996).
Converted amounts (≈) assume the structure as drawn. Where two headings read alike, the source gives them in different places.

Columns and labels:
A549 = assay: In vitro tumour cell cytotoxicity, colorimetric MTT assay, 72 h; type: cell-based, human; conditions: 72 h exposure
HT-29 = assay: as above; type: cell-based, human; conditions: 72 h exposure
B16F10 = assay: as above; type: cell-based, murine; conditions: 72 h exposure
P388 = assay: as above; type: cell-based, murine; conditions: 72 h exposure
[1] = test system: A549, HT-29, B16F10 and P388 tumour cells; assay: In vitro cytotoxicity across the four tumour cell lines, compared with paclitaxel; type: cell-based; conditions: human and murine tumour cells
[2] = test system: human MX-1 xenograft solid tumour; conditions: for Cure rate / Delay in tumour growth compared with untreated controls: once daily on days 1-5 after inoculation
[3] = Pharmacokinetics following i.p. dosing in mice; conditions: for t1/2 / Cmax / Tmax / AUC / AUC value (rounded) / Cmax (rounded): 20 mg kg-1 i.p.; for t1/2 / Cmax / Tmax / AUC: male CD-1 mice; for t1/2 / AUC / AUC value (rounded) / Cmax (rounded): plasma; for Cmax / Tmax: plasma (Table VI); for AUC: 0-12 h, trapezoidal (Table VI); for AUC value (rounded) / Cmax (rounded): mice; for Serum concentrations compared with paclitaxel: at equal dosages
murine M109 solid tumour = assay: In vivo efficacy vs subcutaneous M109 solid tumour; conditions: for Days (1.0 g): days to reach mean tumour mass = 1.0 g ± s.d. / Delay (1.0 g): delay to reach mean tumour mass = 1.0 g, compared with untreated / Per cent cures (mice with no palpable tumours, day 60) / Per cent toxicity / TWI (per cent tumour weight inhibition when untreated control mean = 1.0 g): q.d., i.p., days 1, 5, 9 after inoculation, s.c. tumour, BDF1 mice; for Optimal dose: i.p. every fourth day for three total injections (days 1, 5, 9 after inoculation); for Delay in solid tumour growth to 1 g: paclitaxel at a non-toxic dose
[4] = test system: murine B16F10 melanoma ascites tumour; assay: In vivo efficacy vs i.p. B16F10 melanoma ascites tumour; conditions: for Cure rate at optimal non-toxic dose / Optimal increase in life span (ILS): at non-toxic doses; for %ILS (group mean increase in lifespan) / MST (mean survival time ± s.d.) / Per cent cures (mice alive 60 days after inoculation) / Per cent toxicity (mice with premature death): q.d., i.p., days 1-5 after inoculation, BDF1 mice; for Efficacy against murine B16 ascites tumour compared with paclitaxel: mouse, in vivo
[5] = test system: BDF mice bearing B16F10 ascites tumours; conditions: […]
[6] = dose 12.5 mg kg-1 per day, q.d., i.p., days 1-5 after inoculation, s.c. xenograft, nude mice
[7] = dose 25 mg kg-1 per day, q.d., i.p., days 1-5 after inoculation, s.c. xenograft, nude mice
[8] = dose 50 mg kg-1 per day, q.d., i.p., days 1-5 after inoculation, s.c. xenograft, nude mice
[9] = dose 100 mg kg-1 per day, q.d., i.p., days 1-5 after inoculation, s.c. xenograft, nude mice
[10] = i.p. once daily for 5 consecutive days

SMILES: CC(=O)O[C@@H]1C2=C(C)[C@@H](OC(=O)[C@H](O)[C@@H](NC(=O)c3ccccc3)c3ccccc3)C[C@@](O)([C@@H](OC(=O)c3ccccc3)[C@@H]3[C@]4(OC(C)=O)CO[C@@H]4C[C@H](O)[C@@]3(C)[C@H]1O)C2(C)C [Compound A-85576, 9-dihydrotaxol]
- IC50 (A549): 0.019 µg/mL (≈ 0.0222 µM)
- IC50 (HT-29): 0.008 µg/mL (≈ 0.00935 µM)
- IC50 (B16F10): 0.025 µg/mL (≈ 0.0292 µM)
- IC50 (P388): 0.053 µg/mL (≈ 0.0619 µM)
- In vitro potency compared with paclitaxel [1]: generally less than that of paclitaxel
- Delay (1.0 g) (footnote: delay to reach mean tumour mass = 0.5 g, compared with untreated) [2, 6]: 1.6 days
- Per cent cures (mice with no palpable tumours, day 60) [2, 6]: 0%
- Per cent toxicity [2, 6]: 0%
- TWI (per cent tumour weight inhibition when untreated control mean = 0.5 g) [2, 6]: 31%
- Delay (1.0 g) (footnote: delay to reach mean tumour mass = 0.5 g, compared with untreated) [2, 7]: 5.9 days
- Per cent cures (mice with no palpable tumours, day 60) [2, 7]: 0%
- Per cent toxicity [2, 7]: 0%
- TWI (per cent tumour weight inhibition when untreated control mean = 0.5 g) [2, 7]: 65%
- Delay (1.0 g) (footnote: delay to reach mean tumour mass = 0.5 g, compared with untreated) [2, 8]: 12.4 days
- Per cent toxicity [2, 8]: 0%
- TWI (per cent tumour weight inhibition when untreated control mean = 0.5 g) [2, 8]: 94%
- Delay (1.0 g) (footnote: delay to reach mean tumour mass = 0.5 g, compared with untreated) [2, 9]: 21.1 days
- Per cent cures (mice with no palpable tumours, day 60) [2, 9]: 60%
- Per cent toxicity [2, 9]: 0%
- TWI (per cent tumour weight inhibition when untreated control mean = 0.5 g) [2, 9]: 98%
- Cure rate [2]: 60%
- Delay in tumour growth compared with untreated controls [2]: 21 days
- t1/2 [3]: 1.9 h
- Cmax [3]: 40.32 ig ml-1
- Tmax [3]: 0.58 h
- AUC [3]: 75.62 ig per h ml-1
- AUC value (rounded) [3]: over 75 jg h-1 ml-1
- Cmax (rounded) [3]: 40 jg ml-1
- Serum concentrations compared with paclitaxel [3]: greater than paclitaxel
- Days (1.0 g): days to reach mean tumour mass = 1.0 g ± s.d. (murine M109 solid tumour; dose 25 mg kg-1 per day): 13.6+2.3 days
- Delay (1.0 g): delay to reach mean tumour mass = 1.0 g, compared with untreated (murine M109 solid tumour; dose 25 mg kg-1 per day): 1.6 days
- Per cent cures (mice with no palpable tumours, day 60) (murine M109 solid tumour; dose 25 mg kg-1 per day): 0%
- Per cent toxicity (murine M109 solid tumour; dose 25 mg kg-1 per day): 0%
- TWI (per cent tumour weight inhibition when untreated control mean = 1.0 g) (murine M109 solid tumour; dose 25 mg kg-1 per day): 34%
- Days (1.0 g): days to reach mean tumour mass = 1.0 g ± s.d. (murine M109 solid tumour; dose 50 mg kg-1 per day): 14.1+3.2 days
- Delay (1.0 g): delay to reach mean tumour mass = 1.0 g, compared with untreated (murine M109 solid tumour; dose 50 mg kg-1 per day): 2.1 days
- Per cent cures (mice with no palpable tumours, day 60) (murine M109 solid tumour; dose 50 mg kg-1 per day): 0%
- Per cent toxicity (murine M109 solid tumour; dose 50 mg kg-1 per day): 0%
- TWI (per cent tumour weight inhibition when untreated control mean = 1.0 g) (murine M109 solid tumour; dose 50 mg kg-1 per day): 46%
- Delay (1.0 g): delay to reach mean tumour mass = 1.0 g, compared with untreated (murine M109 solid tumour; dose 100 mg kg-1 per day): 10.5 days
- Per cent cures (mice with no palpable tumours, day 60) (murine M109 solid tumour; dose 100 mg kg-1 per day): 0%
- Per cent toxicity (murine M109 solid tumour; dose 100 mg kg-1 per day): 0%
- TWI (per cent tumour weight inhibition when untreated control mean = 1.0 g) (murine M109 solid tumour; dose 100 mg kg-1 per day): 90%
- Optimal dose (murine M109 solid tumour): 100 mg kg-1 injection
- Delay in solid tumour growth to 1 g (murine M109 solid tumour): 10.5 days
- Cure rate at optimal non-toxic dose [4, 10]: 0%
- Optimal increase in life span (ILS) [4, 10]: 39%
- %ILS (group mean increase in lifespan) ([4]; dose 25 mg kg-1 per day): 21%
- MST (mean survival time ± s.d.) ([4]; dose 25 mg kg-1 per day): 23.9 ± 4.3 days
- Per cent cures (mice alive 60 days after inoculation) ([4]; dose 25 mg kg-1 per day): 0%
- Per cent toxicity (mice with premature death) ([4]; dose 25 mg kg-1 per day): 0%
- %ILS (group mean increase in lifespan) ([4]; dose 50 mg kg-1 per day): 39%
- Per cent cures (mice alive 60 days after inoculation) ([4]; dose 50 mg kg-1 per day): 0%
- Per cent toxicity (mice with premature death) ([4]; dose 50 mg kg-1 per day): 0%
- %ILS (group mean increase in lifespan) ([4]; dose 100 mg kg-1 per day): 46%
- Per cent cures (mice alive 60 days after inoculation) ([4]; dose 100 mg kg-1 per day): 0%
- Per cent toxicity (mice with premature death) ([4]; dose 100 mg kg-1 per day): 20%
- Optimal dose [4, 10]: 50 mg/kg/day
- Efficacy against murine B16 ascites tumour compared with paclitaxel [4]: less effective

SMILES: CC(=O)OC12COC1CC(O)C1(C)C(O)C(O)C3=C(C)C(OC(=O)C(O)C(NC(=O)c4ccccc4)c4ccccc4)CC(O)(C(OC(=O)c4ccccc4)C21)C3(C)C (stereo not drawn) [Compound A-86415, 10-deacetyl-9-dihydrotaxol]
- IC50 (A549): 0.011 µg/mL (≈ 0.0135 µM)
- IC50 (HT-29): 0.0019 µg/mL (≈ 0.00233 µM)
- IC50 (B16F10): 0.039 µg/mL (≈ 0.0479 µM)
- IC50 (P388): 0.014 µg/mL (≈ 0.0172 µM)
- In vitro potency compared with paclitaxel [1]: generally less than that of paclitaxel
- MTD (q.d. days 1-5) [5]: greater than 100 mg kg-1 per day
- Delay (1.0 g) (footnote: delay to reach mean tumour mass = 0.5 g, compared with untreated) [2, 6]: 0 days
- Per cent cures (mice with no palpable tumours, day 60) [2, 6]: 20%
- Per cent toxicity [2, 6]: 0%
- TWI (per cent tumour weight inhibition when untreated control mean = 0.5 g) [2, 6]: 27%
- Days to 1.0 g (footnote: days to reach mean tumour mass = 0.5 g ± s.d.) [2, 7]: 33.3 + 7.6 days
- Delay (1.0 g) (footnote: delay to reach mean tumour mass = 0.5 g, compared with untreated) [2, 7]: 5.4 days
- Per cent cures (mice with no palpable tumours, day 60) [2, 7]: 10%
- Per cent toxicity [2, 7]: 0%
- TWI (per cent tumour weight inhibition when untreated control mean = 0.5 g) [2, 7]: 73%
- Delay (1.0 g) (footnote: delay to reach mean tumour mass = 0.5 g, compared with untreated) [2, 8]: 14.7 days
- Per cent cures (mice with no palpable tumours, day 60) [2, 8]: 30%
- Per cent toxicity [2, 8]: 0%
- TWI (per cent tumour weight inhibition when untreated control mean = 0.5 g) [2, 8]: 99%
- Delay (1.0 g) (footnote: delay to reach mean tumour mass = 0.5 g, compared with untreated) [2, 9]: 33.1 days
- Per cent cures (mice with no palpable tumours, day 60) [2, 9]: 70%
- Per cent toxicity [2, 9]: 0%
- TWI (per cent tumour weight inhibition when untreated control mean = 0.5 g) [2, 9]: 100%
- Cure rate [2]: 70%
- Delay in tumour growth compared with untreated controls [2]: 33 days
- t1/2 [3]: 2.8 h
- Cmax [3]: 11.19 ig ml-1
- Tmax [3]: 1.40 h
- AUC [3]: 29.81 ig per h ml-1
- AUC value (rounded) [3]: 30 jg h-1 ml-1
- Cmax (rounded) [3]: 11 jg ml-1
- Serum concentrations compared with paclitaxel [3]: less than paclitaxel
- Days (1.0 g): days to reach mean tumour mass = 1.0 g ± s.d. (murine M109 solid tumour; dose 25 mg kg-1 per day): 12.0+0 days
- Delay (1.0 g): delay to reach mean tumour mass = 1.0 g, compared with untreated (murine M109 solid tumour; dose 25 mg kg-1 per day): 0 days
- Per cent cures (mice with no palpable tumours, day 60) (murine M109 solid tumour; dose 25 mg kg-1 per day): 0%
- Per cent toxicity (murine M109 solid tumour; dose 25 mg kg-1 per day): 0%
- TWI (per cent tumour weight inhibition when untreated control mean = 1.0 g) (murine M109 solid tumour; dose 25 mg kg-1 per day): 10%
- Days (1.0 g): days to reach mean tumour mass = 1.0 g ± s.d. (murine M109 solid tumour; dose 50 mg kg-1 per day): 12.0+0 days
- Delay (1.0 g): delay to reach mean tumour mass = 1.0 g, compared with untreated (murine M109 solid tumour; dose 50 mg kg-1 per day): 0 days
- Per cent cures (mice with no palpable tumours, day 60) (murine M109 solid tumour; dose 50 mg kg-1 per day): 0%
- Per cent toxicity (murine M109 solid tumour; dose 50 mg kg-1 per day): 0%
- TWI (per cent tumour weight inhibition when untreated control mean = 1.0 g) (murine M109 solid tumour; dose 50 mg kg-1 per day): 19%
- Delay (1.0 g): delay to reach mean tumour mass = 1.0 g, compared with untreated (murine M109 solid tumour; dose 100 mg kg-1 per day): 5.1 days
- Per cent cures (mice with no palpable tumours, day 60) (murine M109 solid tumour; dose 100 mg kg-1 per day): 0%
- Per cent toxicity (murine M109 solid tumour; dose 100 mg kg-1 per day): 0%
- TWI (per cent tumour weight inhibition when untreated control mean = 1.0 g) (murine M109 solid tumour; dose 100 mg kg-1 per day): 79%
- Optimal dose (murine M109 solid tumour): 100 mg kg-1 injection
- Delay in solid tumour growth to 1 g (murine M109 solid tumour): 5.1 days
- Cure rate at optimal non-toxic dose [4, 10]: 10%
- Optimal increase in life span (ILS) [4, 10]: 83%
- %ILS (group mean increase in lifespan) ([4]; dose 25 mg kg-1 per day): 52%
- Per cent cures (mice alive 60 days after inoculation) ([4]; dose 25 mg kg-1 per day): 0%
- Per cent toxicity (mice with premature death) ([4]; dose 25 mg kg-1 per day): 0%
- %ILS (group mean increase in lifespan) ([4]; dose 50 mg kg-1 per day): 83%
- MST (mean survival time ± s.d.) ([4]; dose 50 mg kg-1 per day): 36.1 ± 4.5 days
- Per cent cures (mice alive 60 days after inoculation) ([4]; dose 50 mg kg-1 per day): 10%
- Per cent toxicity (mice with premature death) ([4]; dose 50 mg kg-1 per day): 0%
- %ILS (group mean increase in lifespan) ([4]; dose 100 mg kg-1 per day): 77%
- Per cent cures (mice alive 60 days after inoculation) ([4]; dose 100 mg kg-1 per day): 0%
- Per cent toxicity (mice with premature death) ([4]; dose 100 mg kg-1 per day): 0%
- Efficacy against murine B16 ascites tumour compared with paclitaxel [4]: as effective as paclitaxel
